Experimental data taken from US5837706A, “Drug for neuroprotection” (Daiichi Pharmaceutical Co., Ltd., priority 1993, dated 1998).
Entries after “also recorded” stand apart in the source; their conditions may differ. Where two headings read alike, the source gives them in different places.

Assays:
[1] = system: fodrin; assay: Effect of calcium ion on breakdown of cytoskeltal protein fodrin in hippocampal homogenate (western blotting); format: biochemical, gerbil; conditions: 1 mM CaCl2 or 1 mM EGTA, 37° C., 1 hour
Description: The hippocampus taken out from a gerbil was homogenized with 20 mM tris buffer (pH 7.5). […] Then the homogenate was centrifuged at 10,000×g for 30 minutes. After separating proteins contained in the supernatant fraction by SDS-PAGE, the proteins were identified by western blotting with the use of a fodrin antibody (rabbit anti α-Spectrin) and a calmodulin antibody (sheep anti-bovine calmodulin).

[2] = system: hippocampal calmodulin; assay: Effect on intracellular localization of hippocampal calmodulin in hippocampal homogenate (radioimmunoassay); format: biochemical, gerbil; conditions: for Calmodulin Content, Membrane Fraction / Calmodulin Content, Soluble Fraction: hippocampal homogenate, 37° C., 30 minutes, 1 mM CaCl2, or 1 mM CaCl2 + 10 μM compound A; for Calmodulin Content, Membrane Fraction / Calmodulin Content, Soluble Fraction / effect on the behavior of calmodulin in the presence of EGTA: 1 mM EGTA; for Calmodulin Content, Membrane Fraction: control 8.8 ± 0.25; for Calmodulin Content, Soluble Fraction: control 4.5 ± 0.13
Description: The hippocampus of a gerbil was homogenized with 20 mM tris buffer (pH 7.5) containing 0.1 mM leupeptin, 0.1 mM PMSF and 0.01 mg/ml of aprotinin. […] The precipitate was solubilized with 0.1% Lubrol PX. Then the calmodulin contents in the soluble fraction and the membrane fraction were determined by radioimmunoassay.

[3] = system: delayed neuronal cell death; conditions: Kogure et al. 1990; cited from earlier work
[4] = target: T1, calmodulin-depending phosphodiesterase (CaM-PDE) / calmodulin (Bos taurus, UniProt P62157); assay: Calmodulin inhibition effect: inhibition of calmodulin-depending phosphodiesterase (PDE); format: biochemical, bovine
T1 construct: calmodulin (CaM, from bovine brain); from tissue; host or cells: bovine brain
Description: The calmodulin inhibition effect of a compound was evaluated by using its effect of inhibiting calmodulin-depending phosphodiesterase (PDE) as an index. […] After ceasing the reaction by heating in a boiling water bath for 1 minute, snake venom (1 mg/ml) was added thereto and the resulting mixture was reacted at 30° C. for 10 minutes to thereby convert 5'-GMP formed by PDE into guanosine. Next, the unreacted cGMP was adsorbed by an ion exchange resin (AGI-X8). Subsequently, the mixture was centrifuged and the radioactivity of the supernatant was measured with a liquid scintillation counter.

[5] = system: hippocampal calmodulin; assay: Effect on intracellular localization of hippocampal calmodulin in cerebral ischemic gerbil (radioimmunoassay); format: in vivo; conditions: for increase in the calmodulin content in the membrane fraction / translocation of calmodulin after cerebral ischemia: cerebral ischemic model of gerbil, 100 mg/kg orally, 24 hours after ischemia
Description: Both common carotid arteries of a gerbil were ligated for 10 minutes. One hour and 24 hours after allowing the blood stream to flow again, the calmodulin content in the hippocampus was determined by radioimmunoassay. The compound A (100 mg/kg) was suspended in 0.5% methylcellulose and orally administered to the animal 1 hour before cerebral ischemia.

[6] = system: fodrin; assay: Change in fodrin in cerebral ischemic model (western blotting); format: in vivo; conditions: cerebral ischemic model of gerbil; 100 mg/kg 1 hour before ischemia, evaluated 48 hours thereafter
Description: Both common carotid arteries of a gerbil were ligated for 10 minutes to thereby prepare a cerebral ischemic model. Four, 24 and 48 hours after allowing the blood stream to flow again, the hippocampus was taken out and homogenized with 20 mM tris buffer (pH 7.5) containing 0.1 mM leupeptin, 0.1 mM PMSF and […]. After centrifuging at 10,000×g for 30 minutes, proteins in the supernatant were separated by SDS-PAGE. Then fodrin and breakdown products thereof were identified by the same method as the one described in Pharmacological Example 3. The compound B (100 mg/kg) was administered 1 hour before cerebral ischemia and evaluated 48 hours thereafter. Fodrin breakdown products were little detected from the normal gerbil. In the case of the cerebral ischemic model, on the other hand, breakdown products appeared 4 hours after allowing the blood stream to flow again and similar bands were observed after 48 hours.

[7] = system: hippocampal CA1 neuronal cells; assay: Change in hippocampal neuronal cells in cerebral ischemic model; format: in vivo, gerbil; conditions: for Hippocampal Neuronal Cell Density: 100 mg/kg orally 1 hour after 5 min ischemia, CA1, 7 days, n = 9-10, normal 194 ± 6.1, ischemia 9 ± 1.3; for protective effect on neuronal cells / suppression of neuronal cell death: cerebral ischemia, gerbil, 100 mg/kg orally 1 hour after ischemia
Description: When transient cerebral ischemia was loaded to a gerbil, necrosis of hippocampal cells was observed from several days thereafter. This change is called delayed neuronal cell death. Cerebral ischemia was loaded to a gerbil for 5 minutes. Seven days thereafter, the animal was sacrificed and the neuronal cells remaining in the hippocampal CA1 region were counted. Most of the hippocampal CA1 cells died due to the cerebral ischemia.

[8] = system: fodrin; conditions: Seubert et al., Synapse 1987; cited from earlier work
[9] = 100 mg/kg orally 1 hour before 10 min ischemia, 24 hrs after ischemia, n = 10-12

[Ca+2].[Cl-].[Cl-] [CaCl2, calcium chloride, reference compound]
stable breakdown products of fodrin (140-150 kDa) [1]: bands of the breakdown products appeared
calmodulin content in the membrane fraction, change in words ([2]; 1 mM calcium chloride, compared with EGTA): increased
Calmodulin Content, Membrane Fraction [2]: 11.4 ± 0.34 μg/mg protein

O=C(O)CN(CCOCCOCCN(CC(=O)O)CC(=O)O)CC(=O)O [EGTA, ethylenebis(oxyethylenenitrylo)tetraacetic acid, reference compound]
stable breakdown products of fodrin (140-150 kDa) [1]: little observed
Calmodulin Content, Soluble Fraction [2]: 12.3 ± 0.77 μg/mg protein
Calmodulin Content, Membrane Fraction [2]: 7.6 ± 0.40 μg/mg protein

NCCCCCCNS(=O)(=O)c1cccc2c(Cl)cccc12 [W-7, reference compound]
effect of suppressing delayed neuronal cell death [3]: no effect
effect on the behavior of calmodulin in the presence of EGTA [2]: no effect

COc1ccc(Cn2nc(CCN3CCN(c4cccc(Cl)c4C)CC3)c3cc(OC)c(OC)cc32)cc1OC [compound A]
IC50 [4]: 3.93 µM
selectivity for calmodulin [4]: high selectivity for calmodulin
Calmodulin Content, Cytoplasm Fraction [5, 9]: 1.3 ± 0.08 μg/mg protein
Calmodulin Content, Membrane Fraction [5, 9]: 1.4 ± 0.05 μg/mg protein
increase in the calmodulin content in the membrane fraction / translocation of calmodulin after cerebral ischemia [5]: significantly suppressed; also recorded: suppress
fodrin breakdown products due to cerebral ischemia [6]: suppress
change in calmodulin content / localization caused by calcium ion ([2]; 10 μM compound A, 1 mM calcium chloride, in vitro): significantly suppressed
effect on the behavior of calmodulin in the presence of EGTA [2]: no effect
Calmodulin Content, Soluble Fraction [2]: 1.75 ± 0.52 μg/mg protein
Calmodulin Content, Membrane Fraction [2]: 7.1 ± 0.50 μg/mg protein
Hippocampal Neuronal Cell Density [7]: 98 ± 22.0 /mm
protective effect on neuronal cells / suppression of neuronal cell death [7]: a protective effect on neuronal cells was clearly observed; also recorded: suppress neuronal cell death

COc1cc2c(CCN3CCN(c4cccc(Cl)c4C)CC3)nn(Cc3c[nH]cn3)c2cc1OC [compound B]
selectivity for calmodulin [4]: high selectivity for calmodulin
IC50 ([4]; pH 7.5, 1 mM CaCl2, 30° C., 10 minutes): 5.46 µM
increase in the calmodulin content in the membrane fraction / translocation of calmodulin after cerebral ischemia [5]: suppress
fodrin breakdown products due to cerebral ischemia [6]: scarcely detected; also recorded: suppress
Hippocampal Neuronal Cell Density [7]: 131 ± 21.2 /mm
protective effect on neuronal cells / suppression of neuronal cell death [7]: a protective effect on neuronal cells was clearly observed; also recorded: suppress neuronal cell death

CN1CCN(CCCN2c3ccccc3Sc3ccc(C(F)(F)F)cc32)CC1 [trifluoropelazine]
breakdown of fodrin [8]: suppressed
